From patent US4396607A, “Muramyl peptide derivatives and pharmaceutical compositions” (priority 1978, dated 1983)

How the values were obtained:
Ovalbumin = experiment: Adjuvant character in emulsion (delayed hypersensitivity and antibodies); type: in vivo, Hartley guinea pigs; conditions: guinea pigs, 50 μg in AlF emulsion with 1 mg ovalbumin; for Log2 of the hemagglutinating titer: serum day 21; for HSR (diameter of the delayed hypersensitivity reaction): skin test day 18, read 48 hours later
Method: The tests were carried out on batches of 6 male Hartley guinea pigs of 350 g. The administration was done by intradermal injection into the plantar pad of each of the rear paws. Ovalbumin (constituting the antigen) in the amount of 1 mg is prepared in 0.1 ml of an emulsion of saline isotonic solution, in any oily phase constituted either by the Freund imcomplete adjuvant (FIA), or by the complete adjuvant (FCA) formed by the FIA to which is added 0.1 mg of whole Mycobacterium smegmatis cells. The compound according to the invention was administered in the amount of 0.05 mg added in the emulsion containing the FIA.
Eighteen days after this immunization, possible delayed hypersensitivity reactions to the antigen were sought by injecting by the intradermal route 0.01 mg of ovalbumin in the side of the animals, and 48 hours later, the reaction of the point of injection was observed. The diameter in millimeters of the reaction thus caused was measured.
Twenty-one days after the injection, the animals were bled. […]

[1] = Toxicity (lethal dose 50) by parenteral administration in the adrenalectomised mouse; type: in vivo, mice
Method: The toxicity of the products according to the invention was investigated by parenteral administration in mice. It was observed that the toxic doses were of an order of magnitude very much higher than that of the doses at which these products manifest their activity. Thus the lethal dose 50 of the products according to the invention tested was higher than 5 mg/kg of animal in the adrenalectomised mouse, whose sensitivity to endotoxins is well-known.

Klebsiella pneumoniae = experiment: Anti-infectious activity with respect to Klebsiella; type: in vivo; conditions: mice, i.v. treatment 24h before 2 × 10^4 bacteria i.m.
Method: The survival of groups of inoculated mice under the above conditions and treated by means of the products according to the invention was followed.
The infecting dose was 2.10^4 Klebsiella; it was administered by the intramuscular route.
The administration of the tested product was carried out by the intravenous route in 0.2 ml of apyrogenic physiological solution, the controls receiving the solution alone. It was carried out 24 hours before the inoculation.
The percentage protection indicated is a difference of the percentages of survivors of the treated group with respect to the control group.

[2] = test system: bovine serum albumin (BSA); experiment: Adjuvant character in the aqueous phase (antibody titer by passive hemagglutination); type: in vivo, Swiss mice; conditions: mice, 0.5 mg BSA with 0.1 mg tested substance SC in isotonic saline, booster day 30, titer at the 36th day
Method: Groups of 8 Swiss mice aged two months received, by sub-cutaneous injection (SC), 0.5 mg of antigen constituted by bovine serum albumin (BSA) with 0.1 mg or without the tested substance in an isotonic saline solution. This high dose of antigen, because it is situated at the limit of the paralyzing dose with respect to the immunitary response, results, for this reason, in a weak or zero response to the antigen only in the controls: It constitutes therefore a severe criterien to establish the activity of an adjuvant substance. Thirty days later, the mice received, by the same administrative route, a booster containing 0.1 mg of the same antigen.
The antibody level was determined, six days after the booster, by passive hemagglutination using sheep's red blood corpuscles treated with formalin and covered with the antigen studied according to the method described by A. A. HIRATA and M. W. BRANDISS (J. Immunol., 100, 641-648, 1968).
The antibody titer, represented by the maximum serum dilution agglutinating a given amount of sheep corpuscles, reaches a maximum at the 36th day and is established in the following manner: […]

[3] = test system: Limulus amoebocyte lysate; experiment: Limulus test (endotoxic type activity); conditions: gel formation after 20 minutes at 37° C.
Method: For this purpose, 0.1 ml of the Limulus amoebocyte lysate preparation (marketed by the MALLINCKRODT Company, at St. LOUIS, U.S.A.) was mixed with an equal volume of the tested product at various concentrations in solution in apyrogenic distilled water. The vessels used were also made apyrogenic by dry heating in the oven, at 180° C., for 2 hours.
After incubating the mixture for 20 minutes at 37° C. in tubes, the formation of gel characteristics of the presence of endotoxin was estimated.

Listeria monocytogenes = experiment: Anti-infectious activity with respect to Listeria; type: in vivo; conditions: mice, i.v., 1 day before infection

Row | SMILES | Log2 of the hemagglutinating titer (Ovalbumin) | HSR (diameter of the delayed hypersensitivity reaction) (Ovalbumin) [millimeters] | lethal dose 50 [1] | % of protection (Klebsiella pneumoniae; dose per mouse 100) [%] | Number of survivors at day 3 (Klebsiella pneumoniae; dose per mouse 100) | Number of survivors at day 5 (Klebsiella pneumoniae; dose per mouse 100) | Number of survivors at day 8 (Klebsiella pneumoniae; dose per mouse 100) | Log2 hemagglutinating titer [2] | further results
1 | CC(=O)N[C@H]1C(O)O[C@H](CO)[C@@H](O)[C@@H]1O[C@H](C)C(=O)N[C@@H](C)C(=O)N[C@H](CCC(=O)N[C@@H](C)C(=O)OCc1ccccc1)C(N)=O (stereo partly drawn) [MDP--L--Ala--benzyl--ester, Benzyl ester of N-acetyl-muramyl-L-alanyl-D-isoglutaminyl-L-alanine] | 12.31 ± 0.82 | 12.5 ± 3.5 | higher than 5 mg/kg | 46 | 24 | 14 | 14 | 7.47 ± 0.89 | 
2 | CCCCOC(=O)[C@H](C)NC(=O)CC[C@@H](NC(=O)[C@H](C)NC(=O)[C@@H](C)O[C@H]1[C@H](O)[C@@H](CO)OC(O)[C@@H]1NC(C)=O)C(N)=O (stereo partly drawn) [MDP--L--Ala--butyl--ester, n-butyl ester of N-acetyl-muramyl-L-alanyl-D-isoglutaminyl-L-alanine] | 13.31 ± 0.52 | 18 ± 2 |  | 54 | 23 | 18 | 17 | 10.31 ± 0.49 | 
3 | CCCCCCCCCCNC(=O)[C@H](C)NC(=O)CC[C@@H](NC(=O)[C@H](C)NC(=O)[C@@H](C)O[C@H]1[C@H](O)[C@@H](CO)OC(O)[C@@H]1NC(C)=O)C(N)=O (stereo partly drawn) [MDP--L--Ala--decyl--amide, Decylamide of N-acetyl-muramyl-L-alanyl-D-isoglutamine-L-alanine] |  |  | higher than 5 mg/kg | 50 | 21 | 17 | 16 | 8.64 ± 0.95 | Limulus test result (concentration of the tested product) [3]: 100 µg/mL
4 | CCCCCCCCCCOC(=O)[C@H](C)NC(=O)CC[C@@H](NC(=O)[C@H](C)NC(=O)[C@@H](C)O[C@H]1[C@H](O)[C@@H](CO)OC(O)[C@@H]1NC(C)=O)C(N)=O (stereo partly drawn) [MDP--L--Ala--decyl--ester, Decyl ester of N-acetyl-muramyl-L-alanyl-D-isoglutaminyl-L-alanine] |  |  |  | 44 | 30 | 22 | 22 | 6.23 ± 1.23 | % of protection (Listeria monocytogenes; 10 μg per mouse): 50%; Number of surviving animals at day 5 (Listeria monocytogenes; 10 μg per mouse): 7; Number of surviving animals at day 10 (Listeria monocytogenes; 10 μg per mouse): 5; % of protection (Listeria monocytogenes; 100 μg per mouse): 38%; Number of surviving animals at day 5 (Listeria monocytogenes; 100 μg per mouse): 19; Number of surviving animals at day 10 (Listeria monocytogenes; 100 μg per mouse): 11; % of protection (Listeria monocytogenes; 300 μg per mouse): 23%; Number of surviving animals at day 5 (Listeria monocytogenes; 300 μg per mouse): 11; Number of surviving animals at day 10 (Listeria monocytogenes; 300 μg per mouse): 5; Limulus test result (concentration of the tested product) [3]: 100 µg/mL
5 | CCCCCCCCCCCCCCCOC(=O)[C@H](C)NC(=O)CC[C@@H](NC(=O)[C@H](C)NC(=O)[C@@H](C)O[C@H]1[C@H](O)[C@@H](CO)OC(O)[C@@H]1NC(C)=O)C(N)=O (stereo partly drawn) [MDP--L--Ala--penta--decyl--ester, Pentadecyl ester of N-acetyl-muramyl-L-alanyl-D-isoglutaminyl-L-alanine] | 10.97 ± 1.04 | 5 |  | 50 | 24 | 16 | 15 | 8.39 ± 0.89 | 
6 | CCCCCCCCCCOC(=O)[C@H](CCCCN)NC(=O)CC[C@@H](NC(=O)[C@H](C)NC(=O)[C@@H](C)O[C@H]1[C@H](O)[C@@H](CO)OC(O)[C@@H]1NC(C)=O)C(N)=O (stereo partly drawn) [MDP--L--Lys--decyl--ester, Decyl ester of N-acetyl-muramyl-L-alanyl-D-isoglutaminyl-L-lysine] |  |  | higher than 5 mg/kg | 71 | 22 | 20 | 20 | 9.64 ± 0.70 | 
7 | CCCCCCCCCCOC(=O)CC[C@@H](NC(=O)[C@H](C)NC(=O)[C@@H](C)O[C@H]1[C@H](O)[C@@H](CO)OC(O)[C@@H]1NC(C)=O)C(N)=O (stereo partly drawn) [MDP--decyl--ester, Decyl ester of N-acetyl-muramyl-L-alanyl-D-isoglutamine] |  |  | higher than 5 mg/kg | 75 | 24 | 21 | 21 | 8.64 ± 1.31 | Number of survivors at day 3 (Klebsiella pneumoniae; dose per mouse 10): 1; Number of survivors at day 5 (Klebsiella pneumoniae; dose per mouse 10): 0; Number of survivors at day 8 (Klebsiella pneumoniae; dose per mouse 10): 0
8 | CCCCOC(=O)CC[C@@H](NC(=O)[C@H](C)NC(=O)[C@@H](C)O[C@H]1[C@H](O)[C@@H](CO)OC(O)[C@@H]1NC(C)=O)C(=O)OC (stereo partly drawn) [MDPA(butyl--ester)OCH3, α-methyl, γ-n-butyl N-acetyl-muramyl-L-alanyl-D-glutamic diester] |  |  |  | 38 | 12 | 11 | 9 |  | 
9 | CCCCCCCCCCOC(=O)CC[C@@H](NC(=O)[C@H](C)NC(=O)[C@@H](C)O[C@H]1[C@H](O)[C@@H](CO)OC(O)[C@@H]1NC(C)=O)C(=O)OC (stereo partly drawn) [MDPA(decyl--ester)OCH3, α-methyl, γ-decyl N-acetyl-muramyl-L-alanyl-D-glutamic diester] |  |  |  | 44 | 13 | 11 | 10 |  | 
